Experimental data taken from publication doi:10.1101/2023.08.31.555806v1 (biorxiv, 2023).

Target: T1, VraS (GST-VraS) (Staphylococcus aureus, UniProt Q7A2Q0)
T1 sequence (Q7A2Q0 1-347): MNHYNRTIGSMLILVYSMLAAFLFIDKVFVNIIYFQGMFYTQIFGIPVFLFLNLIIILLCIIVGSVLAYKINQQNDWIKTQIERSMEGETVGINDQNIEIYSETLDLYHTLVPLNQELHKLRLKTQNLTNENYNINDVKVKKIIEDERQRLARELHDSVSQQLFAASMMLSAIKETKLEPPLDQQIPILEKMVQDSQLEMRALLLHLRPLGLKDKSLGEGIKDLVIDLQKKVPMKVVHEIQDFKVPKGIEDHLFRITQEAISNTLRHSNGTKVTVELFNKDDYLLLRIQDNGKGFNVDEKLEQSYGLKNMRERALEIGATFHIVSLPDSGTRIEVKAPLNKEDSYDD
Assay: ATPase activity, pyruvate kinase/lactate dehydrogenase-coupled NADH fluorescence
Format: biochemical

- IC50: 940 ± 290 nM
SMILES: CCSc1nc2ccc(NC(=O)NC(c3cc(C)ccn3)C3CC3)cc2o1 (stereo not shown) [compound 1, 1-(cyclopropyl(4-methylpyridin-2-yl)methyl)-3-(2-(ethylthio)benzo[d]oxazol-6-yl)urea]
